Laboratory results as given in patent US20250270216A1, “ANTI-INFECTIVE AGENTS” (UNIVERSITY OF DUNDEE, priority 2022, published 2025).

Assays:
[1] = target: Cryptosporidium parvum lysyl t-RNA synthetase (Cp KRS) (Cryptosporidium parvum, UniProt Q5CR27); experiment: In vitro inhibition of Cryptosporidium lysyl tRNA synthetase (KRS), Biomol green phosphate detection; type: biochemical; settings: 300 nM CpKRS, 500 μM ATP, 1.2 mM L-Lysine, 8 h room temperature; read-out: C. parvum KRS pIC50 (converted)
Source text: The protein expression and purification method for recombinant CpKRS was described in Baragana et aL, PNAS, 2019, 116 (4), 7015-7020 and will be summarised below.
The C. parvum KRS had 45 residues removed at the N-terminus. All amplicons were cloned into the pAVA0421 expression vector using the ligation independent cloning (LIC) method. Recombinant plasmids were transformed into Rosetta BL21(DE3) competent cells and plated on LB agar plates with ampicillin, carbenicillin, and chloramphenicol selection. Clones were expressed using previously reported autoinduction methods and scaled to 2-litre cultures in a shake flasks. Cell pellets were harvested and lysed with 100 mM HEPES/150 mM NaCl/5% Glycerol/20 mM imidazole/0.5 mM TCEP pH 7.5/DNase/Complete inhibitor tablets) using a Cell Disrupter (Constant Systems) at 30 KPSI and centrifuged at 40,000 g for 20 min remove cell debris. The supernatant was loaded onto a 5 ml HiTrap Ni HP column that had been equilibrated with Buffer A (100 mM HEPES/150 mM NaCl/5% Glycerol/20 mM imidazole/0.5 mM TCEP pH 7.5) at 5 ml/min using an AKTA Pure system. Once loaded the column was washed with 10 column volumes of buffer A. A 5% step of Buffer B (100 mM HEPES/150 mM NaCl/5% Glycerol/500 mM imidazole/0.5 mM TCEP pH 7.5) was then used to wash off His-rich contaminating proteins. A linear gradient of 5-50% B was used to elute the protein. Approximately 287 mg of protein was present in the fractions containing the CpKRS protein. The sample was then concentrated to approximately 30 ml, passed through a 0.2 μm filter, before loading onto a XK26/60 Superdex 200 column using an AKTA Pure system at 4° C. at 2 ml/min 10 ml at a time. The eluted protein was pooled then frozen at −80° C. The concentration of the protein was 1.3 mg/ml. Sometimes the protein was cleaved with PreScission protease overnight, a second Ni column performed in flow through mode to removed uncleaved protein. GST beads were then added to remove the PreScission Protease. The protein was then gel filtered as descripted above.
Assay Method for Measurement of In Vitro Inhibition of Cryptosporidium lysyl tRNA Synthetase (KRS)
Potency of compounds was determined in 10 points dose-response inhibition curves. Compounds were transferred into 384-well clear bottom plates (Greiner Bio-One, 781101) using an Echo 550 acoustic dispenser (Labcyte). Using an automatic liquid dispenser, 50 μL reaction mixes were prepared by adding 25 μL of substrate mix into all wells followed by the addition of 25 μL enzyme mix into compounds and no inhibition control wells (final reaction: 100 mM HEPES, pH 7.4, 20 mM MgCl2, 1 mM DTT, 500 μM ATP, 1.2 mM L-Lysine, 300 nM CpKRS and 0.5 U/mL Pyrophosphatase). Complete inhibition control reactions were performed in the absence of enzyme and the plates were incubated at room temperature for 8 h. Reactions were stopped by the addition of Biomol green (50 μL: Enzo Life Sciences) with the amount of free phosphate detected by measuring absorbance (650 nm) after 20 min further incubation (BMG Pherastar plate reader). Counter screen assays to eliminate direct inhibition of pyrophosphatase were performed using 0.5 U/mL pyrophosphatase and 3 μM pyrophosphate as substrate in the same assay buffer (100 mM HEPES, pH 7.4, 20 mM MgCl2, 1 mM DTT) for 8 hours at room temperature. Biomol green was added and incubated for 20 min before detection as above. Samples were run in duplicate and data was processed and analysed using ActivityBase (IDBS).

Cryptosporidium parvum = experiment: In vitro inhibition of Cryptosporidium (method of Bessoff et al.); type: cell-based; settings: read-out: C. parvum PEC50 (converted)
Source text: Assay Method for Measurement of In Vitro Inhibition of Cryptosporidium
These experiments were run in accordance with the method of Besssoff et. al. Antimicrob. Agents Chemother. 2013, 57:1804-1814. Results from these experiments are provided in the Experimental Results hereinafter.

[2] = tested on: Hep G2 (Human hepatocyte carcinoma); experiment: In vitro inhibition of HepG2 cells (cytotoxicity); type: cell-based; settings: read-out: Hs HepG2 PEC50 (converted)
Source text: Assay Method for Measurement of In Vitro Inhibition of HepG2 Cells (Cytotoxicity)
These experiments were run in accordance with the method of Mersch-Sundermann V et. al. Toxicology 2004, 198:329-340

C. parvum Iowa strain = experiment: Cryptosporidiosis NOD SCID gamma mouse model, fecal oocyst shedding by quantitative PCR; type: in vivo, Cryptosporidium parvum; settings: NOD SCID gamma mice, average reduction in oocyst shedding compared to untreated vehicle
Source text: The in vivo measurement of the potential efficacy of compounds of formula (I) in a cryptosporidium mouse model has been carried out following the method described in Antimicrob. Agents Ch., 2018, 62, 4, e01505-17, and which is summarised below. The cryptosporidiosis NOD SCID gamma mouse model was run as follows: Male NOD SCID gamma mice (NOD.Cg-Prkdc^scid II2rg^tm1Wjt/SzJ, Jackson Labs) were infected approximately 2 weeks post weaning with 10^5 C. parvum Iowa strain oocysts by oral gavage. Four mice were used per experimental group. This establishes a chronic, asymptomatic infection of the small intestine, cecum, and biliary tree. Fecal parasite shedding is monitored by quantitative PCR to amplify C. parvum DNA. One week after infection (which is the timing with which shedding becomes uniformly detected), compounds are dosed by oral gavage. Treatment continued for seven days total. The number of oocysts per milligram of stool was measured for each mouse on day 8 (1 day after completion of the last dose) and day 15 […] (7 days after the completion of the last dose). Average oocyst concentrations were calculated for each group of mice. Log reduction is the average reduction in oocyst shedding compared to untreated vehicle. These experiments were run in accordance with the method of C. D. Huston et al, Antimicrob. Agents Ch., 2018, 62, 4, e01505-17.

Sequence of Cryptosporidium parvum lysyl t-RNA synthetase (Cp KRS) (Q5CR27 entry or part of it): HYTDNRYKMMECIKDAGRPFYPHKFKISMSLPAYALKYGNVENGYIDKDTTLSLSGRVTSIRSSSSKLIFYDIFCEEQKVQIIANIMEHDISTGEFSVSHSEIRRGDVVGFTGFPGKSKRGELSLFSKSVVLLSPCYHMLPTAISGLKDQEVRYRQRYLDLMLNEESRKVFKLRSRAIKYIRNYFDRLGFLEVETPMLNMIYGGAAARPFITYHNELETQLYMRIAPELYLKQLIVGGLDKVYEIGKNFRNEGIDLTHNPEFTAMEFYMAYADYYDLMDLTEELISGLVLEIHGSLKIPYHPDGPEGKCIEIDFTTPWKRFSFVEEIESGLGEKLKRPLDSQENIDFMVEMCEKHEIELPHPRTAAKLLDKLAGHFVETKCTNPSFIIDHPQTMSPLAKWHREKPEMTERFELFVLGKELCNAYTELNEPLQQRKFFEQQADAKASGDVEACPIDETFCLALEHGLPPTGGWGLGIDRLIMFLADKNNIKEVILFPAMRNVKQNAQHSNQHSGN

Row | IC50 [1] [nM] | EC50 (Cryptosporidium parvum) [nM] | Compound | EC50 [2] [nM] | Log Reduction (day 8) (C. parvum Iowa strain; 10 mg/kg P.O. B.I.D. 7 days) | Log Reduction (day 15) (C. parvum Iowa strain; 10 mg/kg P.O. B.I.D. 7 days) | Log Reduction (day 8) (C. parvum Iowa strain; 50 mg/kg P.O. B.I.D. 7 days) | Log Reduction (day 15) (C. parvum Iowa strain; 50 mg/kg P.O. B.I.D. 7 days) | Log Reduction (day 8) (C. parvum Iowa strain; 20 mg/kg P.O. B.I.D. 7 days) | Log Reduction (day 15) (C. parvum Iowa strain; 20 mg/kg P.O. B.I.D. 7 days) | Log Reduction (day 8) (C. parvum Iowa strain; 30 mg/kg P.O. B.I.D. 7 days) | Log Reduction (day 15) (C. parvum Iowa strain; 30 mg/kg P.O. B.I.D. 7 days) | Log Reduction (day 8) (C. parvum Iowa strain; 40 mg/kg P.O. B.I.D. 7 days) | Log Reduction (day 15) (C. parvum Iowa strain; 40 mg/kg P.O. B.I.D. 7 days)
1 | 2510 | 158 | Nc1nc2c(c(C(F)(F)F)n1)C(=O)N(CC1CCCC3(CC3)C1)C2 (racemic) [Compound 4, 2-amino-6-(spiro[2.5]octan-5-ylmethyl)-4-(trifluoromethyl)-6,7-dihydro-5H-pyrrolo[3,4-d]pyrimidin-5-one] | 20000 | 1.3 | 1.0 | 3.4 | 2.5 | – | – | – | – | – | –
2 | 794 | 31.6 | Nc1nc2c(c(C(F)(F)F)n1)C(=O)N(C[C@@H]1CCC[C@H](C(F)(F)F)C1)C2 [Compound 1, 2-amino-4-(trifluoromethyl)-6-(((1R,3S)-3-(trifluoromethyl)cyclohexyl)methyl)-6,7-dihydro-5H-pyrrolo[3,4-d]pyrimidin-5-one] | 25100 | 3.0 | 1.0 | 3.4 | 3.5 | 3.1 | 0.7 | 2.9 | 2.2 | 2.6 | 2.9
3 | 794 | 20 | Cc1nc(N)nc2c1C(=O)N(C[C@@H]1CCC[C@H](C(F)(F)F)C1)C2 [Compound 2, 2-amino-4-methyl-6-(((1R,3S)-3-(trifluoromethyl)cyclohexyl)methyl)-6,7-dihydro-5H-pyrrolo[3,4-d]pyrimidin-5-one] | 12600 | 1.8 | 0.8 | – | – | – | – | 2.7 | 2.4 | – | –
4 | 1000 | 25.1 | Nc1nc2c(c(C(F)F)n1)C(=O)N(C[C@@H]1CCC[C@H](C(F)(F)F)C1)C2 [Compound 3, 2-amino-4-(difluoromethyl)-6-(((1R,3S)-3-(trifluoromethyl)cyclohexyl)methyl)-6,7-dihydro-5H-pyrrolo[3,4-d]pyrimidin-5-one] | 25100 | 2.4 | 1.0 | – | – | – | – | 2.8 | 1.6 | – | –
